{"source": "patent US4133876A", "about": "“Antibiotic A-32887 and process for production thereof” (Eli Lilly and Company, priority 1977, dated 1979)", "key": {"[1]": {"system": "coccidia", "experiment": "Feeding experiments in young chickens challenged with coccidia", "format": "in vivo, Eimeria species", "details": "feed levels as low as 40 ppm"}, "[2]": {"system": "E. tenella, E. maxima and E. acervulina", "experiment": "Anticoccidial activity in chicks (Table XIII)", "format": "in vivo", "set-up": "Average Lesion Score, Intestinal / Average Lesion Score, Cecal: scale not given here", "details": "for Percent Mortality: due to coccidiosis; for Percent Weight Gain: per survivor; for Oocysts/Bird: total days 5, 6 and 7 post-inoculation; for Feed/Gain: pens without deaths only", "description": "^2 Six replicates; 5 birds/each\n^5 Pens without deaths, only\n^6 Total days 5, 6 and 7 post-inoculation"}, "[3]": {"system": "ATPase", "experiment": "ATPase inhibition in vitro using NaCl", "format": "biochemical", "description": "In yet another aspect, the A-32887 compounds are active as inhibitors of the enzyme ATPase. ATPase, an alkali-metal-sensitive enzyme found in cell membranes, is involved in the energy necessary for active transport. \"Active transport\" refers to the energy-requiring series of operations whereby intracellular and extracellular fluids maintain their compositions. Inhibitors of ATPase reduce the energy required for active transport."}}}
{"smiles": "CO[C@H]1CC[C@H](OC2[C@@H](C)[C@@](C)(O)O[C@H]([C@H]3CC[C@H]([C@@H]4CC[C@H]([C@@]5(C)O[C@]6(O[C@H](C[C@@H]7O[C@](O)([C@@H](O)C(=O)O)[C@@H](C)[C@H](OC)[C@@]7(C)OC)C[C@@H](OC)[C@H]6C)[C@H](C)[C@H]5OC)O4)O3)[C@H]2C)O[C@@H]1C.[K+].[Na+]", "note": "(some centres unmarked) [A-32887 (Na-K salt)]", "values": [{"measurement": "Mortality", "setting": "[1]", "value": "decreases"}, {"measurement": "number of lesions", "setting": "[1]", "value": "decreases"}, {"measurement": "Average Lesion Score, Cecal", "setting": "[2]; 25 ppm", "value": 3.9}, {"measurement": "Average Lesion Score, Intestinal", "setting": "[2]; 25 ppm", "value": 1.1}, {"measurement": "Percent Mortality", "setting": "[2]; 25 ppm", "value": 35, "unit": "%"}, {"measurement": "Percent Weight Gain", "setting": "[2]; 25 ppm", "value": 57, "unit": "%"}, {"measurement": "Oocysts/Bird", "setting": "[2]; 25 ppm", "value": "64.83 1×10^6"}, {"measurement": "Average Lesion Score, Cecal", "setting": "[2]; 50 ppm", "value": 3.8}, {"measurement": "Average Lesion Score, Intestinal", "setting": "[2]; 50 ppm", "value": 1.8}, {"measurement": "Percent Mortality", "setting": "[2]; 50 ppm", "value": 0, "unit": "%"}, {"measurement": "Feed/Gain", "setting": "[2]; 50 ppm", "value": 1.67}, {"measurement": "Percent Weight Gain", "setting": "[2]; 50 ppm", "value": 79, "unit": "%"}, {"measurement": "Oocysts/Bird", "setting": "[2]; 50 ppm", "value": "35.78 1×10^6"}, {"measurement": "Average Lesion Score, Cecal", "setting": "[2]; 75 ppm", "value": 2.0}, {"measurement": "Average Lesion Score, Intestinal", "setting": "[2]; 75 ppm", "value": 0.9}, {"measurement": "Percent Mortality", "setting": "[2]; 75 ppm", "value": 0, "unit": "%"}, {"measurement": "Feed/Gain", "setting": "[2]; 75 ppm", "value": 1.49}, {"measurement": "Percent Weight Gain", "setting": "[2]; 75 ppm", "value": 90, "unit": "%"}, {"measurement": "Oocysts/Bird", "setting": "[2]; 75 ppm", "value": "24.35 1×10^6"}, {"measurement": "Average Lesion Score, Cecal", "setting": "[2]; 100 ppm", "value": 0.1}, {"measurement": "Average Lesion Score, Intestinal", "setting": "[2]; 100 ppm", "value": 0}, {"measurement": "Percent Mortality", "setting": "[2]; 100 ppm", "value": 0, "unit": "%"}, {"measurement": "Feed/Gain", "setting": "[2]; 100 ppm", "value": 1.50}, {"measurement": "Percent Weight Gain", "setting": "[2]; 100 ppm", "value": 93, "unit": "%"}, {"measurement": "Oocysts/Bird", "setting": "[2]; 100 ppm", "value": "6.49 1×10^6"}, {"measurement": "ATPase inhibition", "setting": "[3]", "value": "inhibit ATPase"}]}
